Test results published in publication PMC10541190 (The Journal of Clinical Investigation, 2023).
“And” between values parts separate entries of the source, which are not always exact repeats. Identical values can stand only once. Like-named read-outs stand apart in the source and are kept apart here.

Columns and labels:
[1] = tested on: SARS-CoV-2 (USA-WA1/2020); test: microbe, parasite or virus in culture; assay type: cell-based; conditions: Severe acute respiratory syndrome coronavirus 2, Vero
[2] = tested on: SARS-CoV-2 (USA-WA1/2020); test: microbe, parasite or virus in culture; assay type: cell-based; conditions: Severe acute respiratory syndrome coronavirus 2, Calu-3, read-out: EC50, SARS-CoV-2 infection
[3] = tested on: rVSV-SARS-CoV-2-S; test: microbe, parasite or virus in culture; assay type: cell-based
[4] = tested on: rVSV-SARS-CoV-2-S; test: microbe, parasite or virus in culture; assay type: cell-based; conditions: Severe acute respiratory syndrome coronavirus 2, Vero, read-out: EC50, rVSV-SARS-CoV-2-S infection
[5] = tested on: SARS-CoV-2 (USA-WA1/2020); test: microbe, parasite or virus in culture; assay type: cell-based; conditions: Severe acute respiratory syndrome coronavirus 2, read-out: EC50, viral replication by plaque assay
[6] = tested on: SARS-CoV-2 (USA-WA1/2020); test: microbe, parasite or virus in culture; assay type: cell-based; conditions: Severe acute respiratory syndrome coronavirus 2, read-out: EC50, nucleocapsid transcript expression by RT-qPCR
[7] = tested on: VEEV (TC-83); test: microbe, parasite or virus in culture; assay type: cell-based; conditions: Venezuelan equine encephalitis virus, U-87 MG, read-out: EC50, VEEV (TC-83) infection
[8] = tested on: VEEV (TrD); test: microbe, parasite or virus in culture; assay type: cell-based; conditions: Venezuelan equine encephalitis virus, U-87 MG, read-out: EC50, VEEV (TrD) infection
[9] = tested on: EBOV (Kikwit isolate); test: microbe, parasite or virus in culture; assay type: cell-based; conditions: Zaire ebolavirus, Huh-7, read-out: EC50, EBOV replication
[10] = tested on: MARV (Ci67 strain); test: organism not typed; assay type: cell-based; conditions: Huh-7, read-out: EC50, MARV replication
[11] = tested on: MPOXV 2003 and MPOXV 2022; test: microbe, parasite or virus in culture; assay type: cell-based; conditions: Monkeypox virus, A549, read-out: EC50, monkeypox replication
[12] = tested on: VEEV (TC-83); assay type: cell-based
[13] = tested on: VEEV (TrD); assay type: cell-based
[14] = biological target: ErbB4 (Homo sapiens, UniProt Q15303); test: biochemical; conditions: read-out: ErbB4 activity (%)
ErbB4, sequence (Q15303 26-1308): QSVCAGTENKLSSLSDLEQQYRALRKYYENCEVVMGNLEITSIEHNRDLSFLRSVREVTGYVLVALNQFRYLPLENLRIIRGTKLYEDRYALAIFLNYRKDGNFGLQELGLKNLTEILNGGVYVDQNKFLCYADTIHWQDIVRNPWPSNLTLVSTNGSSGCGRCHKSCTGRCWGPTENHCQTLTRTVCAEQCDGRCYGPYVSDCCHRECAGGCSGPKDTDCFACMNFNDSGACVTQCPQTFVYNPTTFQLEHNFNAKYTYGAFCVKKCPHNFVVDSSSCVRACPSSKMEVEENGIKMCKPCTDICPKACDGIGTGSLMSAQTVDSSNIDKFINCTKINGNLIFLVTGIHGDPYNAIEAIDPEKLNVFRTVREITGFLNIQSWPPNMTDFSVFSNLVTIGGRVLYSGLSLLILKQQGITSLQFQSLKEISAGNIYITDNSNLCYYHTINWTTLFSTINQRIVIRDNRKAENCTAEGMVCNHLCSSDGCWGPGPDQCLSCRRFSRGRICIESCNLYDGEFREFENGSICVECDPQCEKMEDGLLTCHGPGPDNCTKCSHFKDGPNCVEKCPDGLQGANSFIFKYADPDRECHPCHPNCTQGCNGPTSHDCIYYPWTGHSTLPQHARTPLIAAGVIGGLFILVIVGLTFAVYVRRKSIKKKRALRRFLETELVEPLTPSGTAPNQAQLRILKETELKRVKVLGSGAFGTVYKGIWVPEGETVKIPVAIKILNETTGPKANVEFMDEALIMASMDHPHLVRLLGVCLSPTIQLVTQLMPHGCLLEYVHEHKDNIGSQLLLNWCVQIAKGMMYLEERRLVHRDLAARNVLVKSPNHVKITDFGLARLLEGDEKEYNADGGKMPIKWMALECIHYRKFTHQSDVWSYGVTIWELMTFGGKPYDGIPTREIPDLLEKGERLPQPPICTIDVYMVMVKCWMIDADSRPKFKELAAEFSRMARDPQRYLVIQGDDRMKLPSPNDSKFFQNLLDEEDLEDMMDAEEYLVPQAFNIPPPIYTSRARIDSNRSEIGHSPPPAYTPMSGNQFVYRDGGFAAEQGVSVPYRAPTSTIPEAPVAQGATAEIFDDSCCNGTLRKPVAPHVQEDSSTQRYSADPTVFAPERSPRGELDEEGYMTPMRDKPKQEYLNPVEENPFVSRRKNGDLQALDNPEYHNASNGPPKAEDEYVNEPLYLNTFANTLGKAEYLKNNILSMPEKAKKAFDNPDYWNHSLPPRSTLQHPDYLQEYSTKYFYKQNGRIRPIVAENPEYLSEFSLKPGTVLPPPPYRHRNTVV

[15] = tested on: SARS-CoV-2; assay type: cell-based
[16] = tested on: rVSV-SARS-CoV-2-S; assay type: cell-based
[17] = tested on: SARS-CoV-2; assay type: cell-based; remark: listed apart in the source
[18] = tested on: ACE2; assay type: cell-based, human
[19] = tested on: TNF-α, IL-1β, IL-6, MCP-1; assay type: cell-based, human
[20] = tested on: claudin-7 tight junctions; assay type: cell-based, human
[21] = tested on: IL-2, IL-12p70, IL-13, IL-6, IFN-γ, IL-10; assay type: cell-based, human
[22] = tested on: SARS-CoV-2 (USA-WA1/2020); assay type: cell-based
[23] = tested on: Vero cells; conditions: African green monkey
[24] = tested on: Calu-3 cells; conditions: human, 1.25 µM
[25] = tested on: Huh7 cells; conditions: human
[26] = tested on: A549 cells; conditions: human
[27] = tested on: VEEV (TC-83); conditions: mouse, in vivo
[28] = mouse, in vivo
[29] = tested on: brain microvascular endothelial cell monolayer
[30] = tested on: ErbB1; conditions: cited from earlier work
[31] = tested on: MAP2K5; conditions: cited from earlier work
[32] = tested on: SARS-CoV-2 main protease (Mpro); conditions: cited from earlier work
[33] = in vitro; conditions: African green monkey
[34] = in vitro; conditions: human, Cell viability (%)
[35] = tested on: RAF1; conditions: cited from earlier work
[36] = human, in vivo; cited from earlier work

CS(=O)(=O)CCNCc1ccc(-c2ccc3ncnc(Nc4ccc(OCc5cccc(F)c5)c(Cl)c4)c3c2)o1 [Lapatinib]
EC50 ([1]; 24 h, read-out: SARS-CoV-2 EC50): 500 nM
EC50 ([1]; read-out: EC50, SARS-CoV-2 infection): 500 nM
EC50 [2]: 700 nM
EC50 ([3]; Severe acute respiratory syndrome coronavirus 2, Calu-3, read-out: EC50, rVSV-SARS-CoV-2-S infection): 2600 to 3200 nM
EC50 ([3]; read-out: EC50, rVSV-SARS-CoV-2-S infection): 2600 nM
EC50 [4]: 3200 nM
EC50 [5]: 400 nM
EC50 [6]: < 200 nM
EC50 [7]: 1200 nM
EC50 [8]: 900 nM
EC50 [9]: 2500 nM
EC50 [10]: 2000 nM
EC50 [11]: 6200 to 7600 nM
replication of TC-83 [12]: dose-dependently inhibited replication
VEEV (TrD) replication in vascular and brain sides of the gNVU [13]: suppressed VEEV (TrD) replication
activity at 0.001 µM [14]: 104%
activity at 0.003 µM [14]: 93.7%
activity at 0.009 µM [14]: 68.4%
activity at 0.247 µM [14]: 17.5%
activity at 2.222 µM [14]: 6.13%
activity at 6.667 µM [14]: 3.13%
activity at 20 µM [14]: 2.93%
activity at […] [14]: 31.2% and 54.5% and 8.67%
suppression of viral infection [15]: 98% and 75% and 99% and 84% and 57%
effect on rVSV-SARS-CoV-2-S infection when added upon or after virus binding [16]: comparable effects
mean Manders' coefficient, colocalization of nucleocapsid and Rab7 [17]: 0.33
number of nucleocapsid puncta per cell [17]: significantly reduced
cell surface level of ACE2 in infected cells [18]: reversed the effect of SARS-CoV-2 infection
IL-6 concentration in ALOs' supernatants [19]: 6.30 pg/mL and 5.01 pg/mL and 5.83 pg/mL and 5.58 pg/mL and 5.85 pg/mL and 5.34 pg/mL and 4.40 pg/mL and 3.70 pg/mL
MCP-1 concentration in ALOs' supernatants [19]: 39.85 pg/mL and 40.23 pg/mL and 32.64 pg/mL and 29.59 pg/mL and 33.59 pg/mL and 31.32 pg/mL and 47.61 pg/mL and 36.68 pg/mL
concentration achieving cytokine levels at or lower than in uninfected monolayers [19]: 0.5 µM
expression level of MCP-1 [19]: increased
expression level of TNF-α, IL-1β and IL-6 [19]: dose-dependently reduced
claudin-7 morphology and alveolar-like architecture [20]: intact claudin-7 morphology
IFN-γ concentration [21]: 26.79 pg/mL and 38.39 pg/mL
IL-1β concentration [21]: 11.89 pg/mL and 16.34 pg/mL
IL-2 concentration [21]: 11.13 pg/mL and 12.03 pg/mL
IL-4 concentration [21]: 7.10 pg/mL and 9.18 pg/mL
IL-6 concentration [21]: 1072.19 pg/mL and 1729.84 pg/mL
IL-8 concentration [21]: 2235.87 pg/mL and 2263.16 pg/mL
IL-10 concentration [21]: 8.47 pg/mL and 10.43 pg/mL
IL-12p70 concentration [21]: 18.48 pg/mL and 18.83 pg/mL
IL-13 concentration [21]: 9.88 pg/mL and 8.83 pg/mL
TNF-α concentration [21]: 22.84 pg/mL and 21.83 pg/mL
production of IL-2, IL-12p70, IL-13 and IL-6 [21]: reduced the production
SARS-CoV-2 nucleocapsid staining (confocal IF) [22]: near-complete disappearance
CC50 [23]: > 20000 nM
Calu-3 cell viability (%) [24]: 85.68%
Huh7 cell viability (%) ([25]; 1.111 µM): 102.98%
Huh7 cell viability (%) ([25]; 10 µM): 86.28%
A549 viability (%) [26]: 103.13%
mice protected [27]: 60%
mice protected by day 10 [27]: 80%
mice protected by day 14 [27]: 40%
toxicity of the dose in the VEEV model [27]: nontoxic
tolerability [28]: good tolerability
barrier integrity (FITC-dextran permeability) [29]: maintained barrier integrity
% of control, ErbB1 [30]: 5.3 nM 0%
Other targets: MAP2K5 (% of control) [31]: RAF1 (0%), STK10 (1.4%), RIPK2 (6.1%), MAP2K5 (12%), SLK (18%)
effect on SARS-CoV-2 main protease (Mpro) [32]: inhibits
CC50 [33]: > 20000 nM
viability at 6.67 µM ([33]; Cell viability (%)): 86.8%
viability at 20 µM ([33]; Cell viability (%)): 64%
viability at 20 µM ([33]; Vero cell viability (%)): 85%
viability at 20 µM [34]: 68.5%
Other targets: RAF1 (% of control) [35]: RAF1 (0%), STK10 (1.4%), RIPK2 (6.1%), MAP2K5 (12%), SLK (18%)
estimated incidence of pneumonitis, interstitial lung disease or lung fibrosis [36]: 0.2%
